Results on 10 compounds are retold here after US10456339B2, “Organic hydroperoxide reduction in perfumery raw materials” (FIRMENICH SA, priority 2017, dated 2019).

A short description of data set [1]: Reduction of POV in sunflower oil using 2-oxovaleric acid. The following applies: 250 μL in 25 mL sunflower oil. As to the method:
25 mL of sunflower oil (from an off-the-shelf, opened 1 quart container with approximately 25% atmospheric headspace; storage time unknown) was placed in a 30 mL vial at room temperature. 250 μL of 2-oxovaleric acid was added. The vial was shaken and allowed to stand at ambient temperature in laboratory lighting on the benchtop. No further treatment was done prior to the POV testing.
POV measurements were made on the sunflower oil before and after the 2-oxovaleric acid treatment. The untreated oil was also re-measured periodically for comparison, since opening of the bottle replenishes atmospheric headspace and can cause the POV of the bottle contents to rise. The % reduction was always calculated versus the most recent POV value on the untreated oil, and if multiple measurements were made, an averaged value (shown in parentheses) was used for the calculation.

Data set [2] is described as follows: POV of model perfume treated with AKG DiDeanol salt. Conditions: 1.0% w/v. As to the method: A model perfume was made using 90/10 v/v ethanol/water as a solvent, and a mixture of orange, grapefruit, and bergamot oils as the perfume oil. The mixed citrus oil was loaded into the solvent at approximately 19.4% v/v (6 mL oil into 25 mL solvent). Approximately 200 mg (1.0% w/v) of the AKG DiDeanol salt was dissolved in 20 mL of the mixed citrus perfume, and POV measurements were taken as a function of time after the addition. An untreated perfume sample was handled similarly to the treated perfume and also tested, because the POV can rise rapidly with handling of the sample (opening the bottle, agitation, etc.).

Data set [3] in a line: Reduction of POV in sunflower oil using AKG-DiMeC12A. Conditions: for POV of treated oil: 0.3062 g in 15 mL sunflower oil.
Excerpt: (§1) The mixture was allowed to stand on the benchtop in ambient laboratory light at room temperature, and POV measurements were taken periodically.
A short description of data set [4]: Surface tension of aqueous solution, pendant drop method. Type of data set: physicochemical. The following applies: 0.14 weight % solution in water; pure water 71.57 mN/m. As to the method: The measurement was made on a Kruss DSA100S Tensiometer by the pendant drop method. […] This concentration was chosen so the results could be compared to the literature value for known surfactant sodium dodecyl sulfate (SDS) at 5 mM, which is approximately 0.15 weight %.

Data set [5] in a line: POV of spiked consumer product: Skin Cream. Conditions: 1% (w/w); for POV of treated Skin Cream: spiked with oxidized limonene. As to the method: This Example reports the treatment of exemplary consumer product formulations. […] All of the samples had not been fragranced, so the POV was be associated with autooxidized base components. The five consumer product formulations were spiked with an extremely oxidized limonene that was produced in a photoreactor as a source of mixed limonene hydroperoxide isomers (the POV was 1434 mmol/L).
Sample Preparation: 40 mL (Sample #3) or 40 g (Samples #1, 2, 4 & 5) were each spiked with 0.4 mL of oxidized limonene and mixed until homogeneous. Half of each spiked consumer product sample was transferred to a second container, and treated as described in the table below with 0.5-1% (w/w) of a 2-oxocarboxylic acid ammonium salt, then mixed to homogeneity. […]

Data set [6] in a line: POV of mixed citrus oil treated with AKG-DiMeC12A salt. Conditions: 1.0% w/v, within 72 hours (3 days) after addition. The source says: In addition to the treatment done in a model perfume as described above, a similar experiment was done in mixed citrus oil. A sample of mixed citrus oil was made by combining lime, orange, grapefruit, lemon, mandarin, tangerine, and bergamot oils, so that a variety of terpene hydroperoxides would be present in the treated mixture being tested. […] An untreated mixed citrus oil sample was handled similarly to the treated oil and also tested, because the POV can rise rapidly with handling of the sample (opening the bottle, agitation, etc.).

The nature of data set [7]: Reduction of POV in model perfume using AKG-HEI. Conditions: 1.0% w/v; 7 days after addition. As to the method:
The mixed citrus oil was loaded into the solvent at approximately 16.7% v/v (40 mL oil into 200 mL solvent, 240 mL total perfume). Approximately 150 mg (1.0% w/v) of the AKG-HEI salt was dissolved in 15 mL of the mixed citrus perfume, and POV measurements were taken as a function of time after the addition. An untreated perfume sample was handled similarly to the treated perfume and also tested, because the POV can rise rapidly with handling of the sample (opening the bottle, agitation, etc.).

Data set [8] in a line: Reduction of POV in model perfume using PhPA-DiMeC10A. Conditions: […] w/v; 7 days after addition. As to the method:
The mixed citrus oil was loaded into the solvent at approximately 16.7% v/v (40 mL oil into 200 mL solvent, 240 mL total perfume). Approximately 164 mg (1.1% w/v) of the PhPA-DiMeC10A salt was dissolved in 15 mL of the mixed citrus perfume, and POV measurements were taken as a function of time after the addition. An untreated perfume sample was handled similarly to the treated perfume and also tested, because the POV can rise rapidly with handling of the sample (opening the bottle, agitation, etc.).

Data set [9] can be described thus: Reduction of POV in sunflower oil using DiMeC10A-PhPA. Conditions: for POV of treated oil: 0.3032 g in 15 mL sunflower oil.
Excerpt: as §1
A short description of data set [10]: Reduction of POV in model perfume using oxaloacetic acid. Conditions: 0.83% w/v; 24 hours after treatment.
A short description of data set [11]: Reduction of POV in limonene using phenylglyoxylic acid. The following applies: 200 mg in 20 mL, room temperature. As to the method: 20 mL of autoxidized limonene was placed in a 30 mL glass vial at room temperature, along with a stir bar and an argon gas blanket. 200 mg of phenylglyoxylic acid was added, which dissolved. The vial was shaken once and allowed to stand, while being monitored for POV value as a function of time.

A short description of data set [12]: Reduction of POV in citrus oil using pyruvic acid. As to the method: 50 mL of mixed citrus oils (orange, lemon, lime, mandarin, bergamot, and tangerine) were placed in a 100 round bottom flask at room temperature, along with a stir bar and an argon gas blanket.
A 4:1 v/v isopropanol/pyruvic acid solution was made. 20 mL of this pyruvic acid solution was dripped into the stirred citrus oils at a rate of 0.25 mL/minute via the use of a syringe pump.
When the addition was complete, 10 mL of water and 100 mg of anhydrous sodium carbonate was added to the flask, and the stirring was maintained. When the visible evolution of CO2 had stopped (about 2-4 minutes), the aqueous layer was removed with a pipette and discarded. POV measurements were made on the mixed citrus oil before and after the pyruvic acid treatment.

Data set [13] can be described thus: Reduction of POV in mixed citrus oil using α-oxo-2-furanacetic acid. Conditions: for Treated POV: 400 mg in 20 mL mixed citrus oil; for POV reduction: vs untreated oil at same time. As to the method:
20 mL of mixed citrus oil was placed in a 30 mL glass vial at room temperature, along with a stir bar and an argon gas blanket. 400 mg of α-oxo-2-furanacetic acid was added. The vial was shaken once and allowed to stand, while being monitored for POV value as a function of time. […] In this way, the undissolved solid acts as a sink to maintain a steady, low concentration of α-oxo-2-furanacetic acid dissolved in the mixed citrus oil.
In this case, because the time between measurements was relatively long (days instead of minutes), there is the possibility that the untreated mixed citrus oil will oxidize further during the course of the experiment. Therefore, the POV of the treated oil was still compared with the POV of the untreated oil, but the measurement of the untreated oil was re-determined at each time point (rather than just a single, initial value being used).

Data set [14] in a line: Reduction of POV in model perfume using α-ketoglutaric acid. The following applies: 1.2% w/v; 24 hours after treatment.

“And” between values parts separate entries of the source, which are not always exact repeats. Identical values can stand only once.

For orientation: surface tension means the force per length acting along the surface.

Consider `CCCC(=O)C(=O)O` [2-oxovaleric acid], for which the “POV, single measurements” value in data set [1] (23 hours) was 4.95 mmol/L and 4.67 mmol/L; in data set [1] (46 hours), 5.34 mmol/L and 5.10 mmol/L; in [1] (15 days) it was 2.27 mmol/L and 2.05 mmol/L and 1.99 mmol/L.

Regarding `CN(C)CCO.CN(C)CCO.O=C(O)CCC(=O)C(=O)O` [AKG DiDeanol], the “POV Treated Perfume” value is given as 5.95 mmol/L in data set [2] (60 min); 5.66 mmol/L in data set [2] (75 min); 4.96 mmol/L in data set [2] (115 min); 3.20 mmol/L in data set [2] (195 min); 3.08 mmol/L in data set [2] (210 min); 2.31 mmol/L in [2] (300 min (5 hours)). For the same compound, the “POV Treated Perfume” value in data set [2] (370 min) is 1.73 mmol/L; in [2] (380 min), 1.72 mmol/L; in [2] ([…] (24 hours), indistinguishable from blank) it was 0.0 indistinguishable from mmol/L.

Regarding `CCCCCCCCCCCCN(C)C.CCCCCCCCCCCCN(C)C.O=C(O)CCC(=O)C(=O)O` [AKG-DiMeC12A], the entries for the “POV of treated oil” value in [3] (50 minutes), in data set [3] (1320 mins (22 hrs)) and in data set [3] (23 days) were 15.36 mmol/L, 12.68 mmol/L and 3.05 mmol/L, respectively. The “% Reduction in POV” value in data set [3] (50 minutes) was found to be 7.2%; in [3] (1320 mins (22 hrs)) it was 23.5%; in data set [3] (23 days), 83.6%; in data set [5] (140 minutes), 56.7%; in data set [5] (300 minutes (5 h)) it was 68.4%; in [5] (26 hrs), 84.6%. The entries for the “% Reduction in POV” value in [5] (4 days), in [5] (8 days) and in data set [5] (15 days) were 90.9%, 93.0% and 100.0%, respectively. Further, the surface tension in data set [4] turned out to be 32.08 mN/m. Moreover, the “POV of treated Skin Cream” value in data set [5] (140 minutes) is reported as 6.06 mmol/L; in data set [5] (300 minutes (5 h)) it was 4.5 mmol/L; in data set [5] (26 hrs), 2.08 mmol/L; in data set [5] (4 days), 1.16 mmol/L; in [5] (8 days) it was 0.82 mmol/L; in data set [5] (15 days), 0 mmol/L. For the same compound, the “reduction in the POV” value in data set [6] is 89.0%.

In the case of `O=C(O)CCC(=O)C(=O)O.O=C1NCCN1CCO.O=C1NCCN1CCO` [AKG-HEI], the “reduction in POV relative to untreated material” value in data set [7] is recorded as 92.1%.

On to `CCCCCCCCCCN(C)C.O=C(O)C(=O)Cc1ccccc1` [DiMeC10A-PhPA], for which, in data set [8], the “reduction in POV relative to untreated material” value worked out at 87.2%. For the same compound, the “solubility in sunflower oil” value in data set [9] (0.3032 g in 15 mL) was “majority of the salt dissolved, but some undissolved solid remained”. Also, the “POV of treated oil” value stood at 3.78 mmol/L in data set [9] (55 minutes); 0.00 mmol/L in data set [9] (140 minutes, indistinguishable from BLANK); 0.00 mmol/L in [9] (1320 mins (22 hrs), indistinguishable from BLANK); 0.00 mmol/L in data set [9] (23 days, indistinguishable from BLANK). The “% Reduction in POV” value in data set [9] (55 minutes) was 77.2%; in [9] (140 minutes), 100%; in [9] (1320 mins (22 hrs)), 100%; in data set [9] (23 days), 100%.

Turning to `O=C(O)CC(=O)C(=O)O` [oxaloacetic acid], the “reduction in the POV of the formulated perfume” value in data set [10] was “complete reduction”.

`O=C(O)C(=O)c1ccccc1` [phenylglyoxylic acid]: the “solubility in autoxidized limonene” value in [11] is on record as “dissolved”.

As to `CC(=O)C(=O)O` [pyruvic acid], the POV after treatment in data set [12] (50 mL mixed citrus oils, 20 mL 4:1 v/v isopropanol/pyruvic acid at 0.25 mL/minute, POV before treatment 27.261 mEq/L) stood at 4.786 mEq./L. Besides, the “reduction in POV” value in data set [12] (after vs before pyruvic acid treatment) is listed as about 82%.

For the compound `O=C(O)C(=O)c1ccco1` [α-Oxo-2-furanacetic acid, α-oxo-2-furanacetic acid], the “solubility in mixed citrus oil” value in data set [13] (400 mg in 20 mL) is on record as “majority of the added α-oxo-2-furanacetic acid did not dissolve”. Moreover, the “Treated POV” value in data set [13] (2 days since addition) was 18.566 mEq/L; in data set [13] (4 days), 17.193 mEq/L; in [13] (44 days) it was 1.106 mEq/L. For the same compound, the POV reduction amounted to 26.8% in data set [13] (2 days), 39.8% in data set [13] (4 days) and 96.2% in data set [13] (44 days).

As for `O=C(O)CCC(=O)C(=O)O` [α-ketoglutaric acid], the “reduction in the POV of the formulated perfume” value in data set [14] was “complete reduction”.
